# ChEMBL document CHEMBL3734715, “Synthesis and antiproliferativeactivity of new vinca alkaloids containing an α,β-unsaturated aromatic side chain” (Bioorg Med Chem Lett, 2015)
# Structures can show the parent of a compound that is named as a salt.
# Tests used:
# Assay type in all cases: functional, cell-based
# KB = assay: Cytotoxicity against human KB cells after 72 hrs by SRB assay
# Lu1 = assay: Cytotoxicity against human Lu1 cells after 72 hrs by SRB assay; details: Lu1, 72 h
# HepG2 = assay: Cytotoxicity against human HepG2 cells after 72 hrs by SRB assay; details: HepG2, 72 h
# MCF7 = assay: Cytotoxicity against human MCF7 cells after 72 hrs by SRB assay; details: MCF7, 72 h
SMILES,IC50 (KB) [µM],IC50 (Lu1) [µM],IC50 (HepG2) [µM],IC50 (MCF7) [µM]
CC[C@]1(O)C[C@@H]2C[C@](C(=O)OC)(c3cc4c(cc3OC)N(C=O)[C@H]3[C@@](O)(C(=O)OC)[C@H](OC(C)=O)[C@]5(CC)C=CCN6CC[C@]43[C@@H]65)c3[nH]c4ccccc4c3CC[N@+](CC(=O)/C=C/c3ccc(Cl)cc3)(C2)C1,0.03,13.8,14.2,10.9
CCC1=C[C@@H]2C[C@](C(=O)OC)(c3c(OC)cc(N)cc3OC)c3[nH]c4ccccc4c3CC[N@@+](CC(=O)/C=C/c3ccc(Cl)cc3)(C1)C2,6.12,13.8,20.2,17.9
CCC1=C[C@H]2CN(CCc3c([nH]c4ccccc34)[C@@](C(=O)OC)(c3c(OC)cc(N)cc3OC)C2)C1,11.5,19.4,20.4,21
CCC1=C[C@H]2CN(CCc3c([nH]c4ccccc34)[C@@](C(=O)OC)(c3cc4c(cc3OC)N(C)[C@H]3[C@@](O)(C(=O)OC)[C@H](OC(C)=O)[C@]5(CC)C=CCN6CC[C@]43[C@@H]65)C2)C1,2.06,5.98,4.53,4.63
CCC1=C[C@@H]2C[C@](C(=O)OC)(c3cc4c(cc3OC)N(C)[C@H]3[C@@](O)(C(=O)OC)[C@H](OC(C)=O)[C@]5(CC)C=CCN6CC[C@]43[C@@H]65)c3[nH]c4ccccc4c3CC[N@@+](CC(=O)/C=C/c3ccc4ccccc4c3)(C1)C2,0.64,3.71,4.31,4.82
Cc1c2ccncc2c(C)c2c1[nH]c1ccccc12 [ELLIPTECINE],1.66,2.31,2.07,1.54
CCC1=C[C@@H]2C[C@](C(=O)OC)(c3c(OC)cc(N)cc3OC)c3[nH]c4ccccc4c3CC[N@@+](CC(=O)/C=C/c3ccc(O)c(OC)c3)(C1)C2,9.11,79,86.8,94.5
CCC1=C[C@@H]2C[C@](C(=O)OC)(c3c(OC)cc(N)cc3OC)c3[nH]c4ccccc4c3CC[N@@+](CC(=O)/C=C/c3ccc4ccccc4c3)(C1)C2,4.16,8.34,10.9,11.9
CCC1=C[C@@H]2C[C@](C(=O)OC)(c3cc4c(cc3OC)N(C)[C@H]3[C@@](O)(C(=O)OC)[C@H](OC(C)=O)[C@]5(CC)C=CCN6CC[C@]43[C@@H]65)c3[nH]c4ccccc4c3CC[N@@+](CC(=O)/C=C/c3ccc(Cl)cc3)(C1)C2,0.28,1.31,1.75,1.83
CC[C@]1(O)C[C@@H]2C[C@](C(=O)OC)(c3cc4c(cc3OC)N(C=O)[C@H]3[C@@](O)(C(=O)OC)[C@H](OC(C)=O)[C@]5(CC)C=CCN6CC[C@]43[C@@H]65)c3[nH]c4ccccc4c3CC[N@+](CC(=O)/C=C/c3ccc(O)c(OC)c3)(C2)C1,1.67,3.45,2.44,3.08
CC[C@]1(O)C[C@@H]2C[C@](C(=O)OC)(c3cc4c(cc3OC)N(C)[C@H]3[C@@](O)(C(=O)OC)[C@H](OC(C)=O)[C@]5(CC)C=CCN6CC[C@]43[C@@H]65)c3[nH]c4ccccc4c3CC[N@+](CC(=O)/C=C/c3ccc4ccccc4c3)(C2)C1,0.03,15.1,18.1,13.7
CC[C@]1(O)C[C@@H]2C[C@](C(=O)OC)(c3cc4c(cc3OC)N(C=O)[C@H]3[C@@](O)(C(=O)OC)[C@H](OC(C)=O)[C@]5(CC)C=CCN6CC[C@]43[C@@H]65)c3[nH]c4ccccc4c3CC[N@+](CC(=O)/C=C/c3ccc4ccccc4c3)(C2)C1,0.08,12,7.94,11
CC[C@]1(O)C[C@@H]2C[C@](C(=O)OC)(c3cc4c(cc3OC)N(C)[C@H]3[C@@](O)(C(=O)OC)[C@H](OC(C)=O)[C@]5(CC)C=CCN6CC[C@]43[C@@H]65)c3[nH]c4ccccc4c3CC[N@+](CC(=O)/C=C/c3ccc(Cl)cc3)(C2)C1,0.06,4.25,7.77,4.89
CC[C@]1(O)C[C@H]2CN(CCc3c([nH]c4ccccc34)[C@@](C(=O)OC)(c3cc4c(cc3OC)N(C)[C@H]3[C@@](O)(C(=O)OC)[C@H](OC(C)=O)[C@]5(CC)C=CCN6CC[C@]43[C@@H]65)C2)C1,0.02,0.47,0.34,0.23
CC[C@]1(O)C[C@H]2CN(CCc3c([nH]c4ccccc34)[C@@](C(=O)OC)(c3cc4c(cc3OC)N(C=O)[C@H]3[C@@](O)(C(=O)OC)[C@H](OC(C)=O)[C@]5(CC)C=CCN6CC[C@]43[C@@H]65)C2)C1 [VINCRISTINE SULFATE],0.02,0.48,0.69,0.51
CC[C@]1(O)C[C@@H]2C[C@](C(=O)OC)(c3cc4c(cc3OC)N(C)[C@H]3[C@@](O)(C(=O)OC)[C@H](OC(C)=O)[C@]5(CC)C=CCN6CC[C@]43[C@@H]65)c3[nH]c4ccccc4c3CC[N@+](CC(=O)/C=C/c3ccc(O)c(OC)c3)(C2)C1,1.69,4.8,7.23,12.5
CCC1=C[C@@H]2C[C@](C(=O)OC)(c3cc4c(cc3OC)N(C)[C@H]3[C@@](O)(C(=O)OC)[C@H](OC(C)=O)[C@]5(CC)C=CCN6CC[C@]43[C@@H]65)c3[nH]c4ccccc4c3CC[N@@+](CC(=O)/C=C/c3ccc(O)c(OC)c3)(C1)C2,0.64,57.5,51.5,50.5
